Tests used:
[1] = system: colonic transit; assay: Effect on colonic transit in Swiss mice; assay type: in vivo, Male Swiss mice; conditions: 1 and 3 mg/kg, p.o., carmine dye, 3 h after dye
Protocol: Male Swiss mice of body weight ˜20-30 g were fasted for 16 h with free access to water prior to the experiment. Mice were administrated compound of example 2 or vehicle, 30 min after administration of 0.5 ml of carmine dye solution. Mice were sacrificed 3 h after dye administration and the distance traveled by the dye from proximal colon was measured. Colonic transit was expressed as % colonic transit=100×(length of colon in which carmine moved/total length of colon).

[2] = Rat pharmacokinetic study; assay type: in vivo; conditions: male Wistar rats, plasma
Protocol: Male Wistar rats (250±50 g) were used as experimental animals. Animals were housed individually in polypropylene cages. Two days prior to study, rats were anesthetized with isoflurane for surgical placement of jugular vein catheter. Rats were randomly divided for oral (3 mg/kg and 10 mL/kg as dose volume) and intravenous (1 mg/kg and 2 mL/kg as dose volume) dosing (n=3/group) and fasted overnight before oral dosing (p.o.). However, rats allocated to intravenous dosing food and water was provided ad libitum.
Intravenous formulation was prepared by using water for injection as vehicle. For Oral, formulation was prepared by using reagent grade water as vehicle. The dose formulations were prepared freshly on the day of dosing.
After dosing of animal, each time point a 200 μL of blood sample was collected through jugular vein and replenished with an equivalent volume of normal saline. The collected blood sample was transferred into a labeled eppendorf tube containing 10 μL of sodium heparin (1000 IU/mL) as an anticoagulant. Typically blood samples were collected at following time points: 0.08, 0.25, 0.5, 1, 2, 4, 6, 8, and 24 h post dose. Blood was centrifuged at 4000 rpm for 10 min. Plasma was separated and stored frozen at −80° C. until analysis. The concentrations of the test compounds were quantified in plasma by qualified LC-MS/MS method using a suitable extraction technique. The test compounds were quantified in the calibration range around 1-2000 ng/mL in plasma. Study samples were analyzed using calibration samples in the batch and quality control samples spread across the batch.
Pharmacokinetic parameters Cmax, AUCt, t1/2 and bioavailability were calculated by non-compartmental model using standard non-compartmental model by using Phoenix WinNonlin 6.4 version Software.

[3] = system: gastric emptying; assay: Effect on gastric emptying in Beagle dogs (clonidine model of gastroparesis); assay type: in vivo; conditions: 3 and 10 mg/kg oral
Protocol: Six beagle dogs were used for the study in a crossover manner such that all 6 dogs received all the treatments. Each dog was placed in an individual cage after overnight fasting and water removed. To provide a model of gastroparesis, clonidine (α2 adrenergic agonist) at a dose of 10 μg/kg was injected subcutaneously 30 min before test meal administration.
Dogs were orally administered test compound of example 2 at 1, 3 and 10 mg/kg or vehicle or cisapride at 10 mg/kg immediately before the administration of clonidine. The test meal (10 mL/kg), made up of commercially available semi-solid food with 10 mg/kg of acetaminophen (APAP), was provided 30 min after clonidine injection. Blood samples were collected from cephalic vein at 0, 0.25, 0.5, 0.75, 1.0, 1.25, 1.5 & 2.0 h after test meal administration and then plasma was separated by centrifugation. Plasma concentrations of APAP were determined by in-house methods using LC-MS/MS.

[4] = system: intestinal (jejunum) EMG activity; assay: Intestinal myoelectrical activity in male Wistar rats; assay type: in vivo; conditions: p.o.
Protocol: Method: The telemetry transmitter (F40-EET; DSI, MA, USA) was implanted subcutaneously in the rat and the spring electrodes were implanted into the walls of intestine (jejunum) under isoflurane anesthesia. After two weeks of surgical recovery, animals were fasted for 14 h and transferred to recording cages. The transmitter was switched on using magnetic switch and baseline intestinal EMG activity was recorded for 3 h. Rats were treated with vehicle, test compound of example 2 (10 or 30 mg/kg, p.o.) or positive control, prucalopride (10 mg/kg, p.o.) was administered and EMG signals were recorded for additional 3 h using Ponemah software (DSI, MA, USA). Animals were given access to only water during study. The recorded EMG signal was filtered using 20-50 Hz band filter and spiking activity was measured in bouts of 30 min using NeuroScore software (DSI, MA, USA).

[5] = Rat brain penetration study; assay type: in vivo; conditions: brain/plasma, oral (gavage) 3 mg/kg, male Wistar rats, brain concentrations below LLOQ taken as zero, read-out: Single dose Brain Penetration (Cb/Cp)
Protocol: Male Wistar rats (225±25 g) were used as experimental animals. Three animals were housed in each cage. Animals were given water and food ad libitum throughout the experiment and maintained on a 12 h light/dark cycle.
Brain penetration was determined in discrete manner in rats. One day prior to dosing day, male Wistar rats were acclimatized. After acclimatization, the rats were grouped according to their weight. In each group, 3 animals were kept in individual cages and allowed free access to food and water. At each time point (0.5, 1, and 2 h) n=3 animals were used.
The compounds of formula (I) were suitably preformulated and administered orally at (free base equivalent) 3 mg/kg. Blood samples were collected via, cardiac puncture by using isoflurane anesthesia. The animals were sacrificed to collect brain tissue. Plasma was separated and brain samples were homogenized and stored frozen at −20° C. until analysis.
The concentrations of the compounds of formula (I) were quantified in plasma and brain homogenate by qualified LC-MS/MS method using a suitable extraction technique. The compounds of formula (I) were quantified in the calibration range of 1-2000 ng/mL in plasma and brain homogenate. Study samples were analyzed using calibration samples in the batch and quality control samples spread across the batch. Extent of brain-plasma ratio was calculated (Cb/Cp). Brain concentrations were found below LLOQ and a value of zero was considered for calculation purposes.

Question: Which results are given for `CC(C)n1c(=O)c(C(=O)NC2CC3CCC(C2)N3C[C@@H](O)CN(C)S(C)(=O)=O)cc2cccn21.O=C(O)C(O)C(O)C(=O)O` (single isomer, unassigned) [Example 2]?
Answer: colonic transit [1]: increased the colonic transit; AUC(0-t) ([2]; intravenous (bolus), 1 mg/kg): 65 ± 3 ng·h/mL; half-life ([2]; intravenous (bolus), 1 mg/kg): 1.5 ± 0.5 h; AUC(0-t) ([2]; oral (gavage), 3 mg/kg): 160 ± 35 ng·h/mL; Cmax ([2]; oral (gavage), 3 mg/kg): 51 ± 19 ng/mL; bioavailability ([2]; oral 3 mg/kg vs intravenous 1 mg/kg): 83 ± 18%; gastric emptying ([3]; clonidine-treated (10 μg/kg s.c.) beagle dogs, plasma APAP): enhanced the gastric emptying in dose dependent manner; gastric motor activity ([3]; clonidine-treated beagle dogs): increased gastric motor activity; increase in myoelectric activity ([4]; 30 mg/kg, jejunum EMG spiking): 97±31%; myoelectric activity ([4]; 10 or 30 mg/kg): dose-dependent increase in myoelectric activity; Kp [5]: 0

From US20250019386A1, “PYRROLO[1,2-b]-2-PYRIDAZINONE COMPOUNDS AS 5-HT4 RECEPTOR AGONISTS” (SUVEN LIFE SCIENCES LIMITED, priority 2022, published 2025)
